Our source for the IC50 and melting point values is article PMC9453454, “Design, synthesis, and anticancer activity of three novel palbociclib derivatives” (Frontiers in Oncology, 2022).

Like-named read-outs stand apart in the source and are kept apart here.

Data set [1] concerns HCT116 cells. Nature of the data set: MTT in vitro cytotoxicity, HCT116. It is filed as cell-based, human. The procedure: (§1) Human lung cancer cells (NCI-H460, NCI-H1299, and A549), human breast cancer cells (MDA-MB-231, MDA-MB-453, and MCF-7), human liver cancer cells (Huh-7 and HepG2), human colon cancer cells (coca-2, HT-29, and HCT116), human cervical cancer cells (HeLa), human normal lung cells (BEAS-2B), and human normal […] (MCF-10) were from the State Key Laboratory of Pharmaceutical Biotechnology, Nanjing University. NCI-H460 were cultured in 1640 medium containing 10% fetal bovine serum (FBS). MDA-MB-231 were cultured in L15 medium containing 10% FBS without CO2, and other cell lines were cultured in DMEM medium containing 10% FBS CO2 in the incubator.
(§2) MTT assay was used to identify 14 different cell lines (human lung cancer cells NCI-H460, NCI-H1299, and A549; human breast cancer cells MDA-MB-231, MDA-MB-453, and MCF-7; human liver cancer cells Huh-7 and HepG2; human colon cancer cells coca-2, HT-29, and HCT116; and human cervical cancer cells HeLa) and 2 kinds of normal cell lines (human normal lung epithelial cells BEAS-2B, human normal breast epithelial cells MCF10-A) for quantitative analysis ([15]). In addition, 10-HCPT and palbociclib were used as positive control.
(§3) Cells were harvested during the logarithmic growth phase and seeded into 96-well plates at a density of 2.0×10^3 cells/well. After being incubated for 24 h, the cells were treated with different concentrations of various culture programs for 48 h. Afterwards, 20 μl of MTT solution (5 mg/ml) was added to each well, and the cells were incubated in a 5% CO2 atmosphere at 37°C for another 4 h. Then, the supernatant was discarded, and the formazan crystals were dissolved in 150 μl DMSO. Subsequently, the absorbance was measured at 570 nm via a Tecan microplate reader. The concentration that caused 50% inhibition of cell viability (IC50) values was calculated by GraphPad Software. Triplicate experiments were performed in parallel for each concentration, and the results are shown as the mean ± SD. The inhibitory ratio was calculated using the following formula: inhibitory ratio (%) = [1−(mean absorbance of experiment group)/(mean absorbance of control group)] × 100.

In data set [2] the test system is MCF-7 cells. Nature of the data set: MTT in vitro cytotoxicity, MCF-7. It is filed as cell-based, human. The procedure:
as §1, §2, §3

The test system of data set [3] is HT-29 cells. Nature of the data set: MTT in vitro cytotoxicity, HT-29. It is filed as cell-based, human. The procedure: as §1, §2, §3
Data set [4] deals with NCI-H1299 cells. Nature of the data set: MTT in vitro cytotoxicity, NCI-H1299. It is filed as cell-based, human. The procedure:
as §1, §2, §3

The subject of data set [5] is BEAS-2B cells. Nature of the data set: MTT in vitro cytotoxicity, BEAS-2B normal lung epithelial cells. It is filed as cell-based, human. Conditions: 48 h. The procedure:
as §1, §2, §3

In data set [6] the test system is MDA-MB-231 cells. Nature of the data set: MTT in vitro cytotoxicity, MDA-MB-231. It is filed as cell-based, human. The procedure: as §1, §2, §3
Data set [7] has as its system HepG2 cells. Nature of the data set: MTT in vitro cytotoxicity, HepG2. In kind it is cell-based, human. The procedure:
as §1, §2, §3

Data set [8] concerns MCF10-A cells. Nature of the data set: MTT in vitro cytotoxicity, MCF10-A normal breast epithelial cells. The settings on record: MCF-10A, 48 h. In kind it is cell-based, human. The procedure:
as §1, §2, §3

The test system of data set [9] is Coca-2 cells. Nature of the data set: MTT in vitro cytotoxicity, Coca-2. In kind it is cell-based, human. Conditions: 48 h. The procedure: as §1, §2, §3
The subject of data set [10] is MDA-MB-453 cells. Nature of the data set: MTT in vitro cytotoxicity, MDA-MB-453. It is filed as cell-based, human. The procedure: as §1, §2, §3
Data set [11] concerns Huh-7 cells. Nature of the data set: MTT in vitro cytotoxicity, Huh-7. It is filed as cell-based, human. The procedure: as §1, §2, §3
Data set [12] has as its system Hela cells. Nature of the data set: MTT in vitro cytotoxicity, Hela. It is filed as cell-based, human. The settings on record: 48 h. The procedure:
as §1, §2, §3

Data set [13] concerns NCI-H460 cells. Nature of the data set: MTT in vitro cytotoxicity, NCI-H460. In kind it is cell-based, human. The procedure:
as §1, §2, §3

Data set [14] has as its system A549 cells. Nature of the data set: MTT in vitro cytotoxicity, A549. It is filed as cell-based, human. The procedure:
as §1, §2, §3

Where [15] appears, read: HCT-116, HCT116 human colon cancer cells, MTT, 48 h, read-out: IC50.
Where [16] appears, read: MCF7, MCF-7 human breast cancer cells, MTT, 48 h, read-out: IC50.
Setting [17] is: HT-29 human colon cancer cells, MTT, 48 h, read-out: IC50.
Setting [18] is: NCI-H1299 human lung cancer cells, MTT, 48 h, read-out: IC50.
Setting [19] is: BEAS-2B human normal lung epithelial cells, MTT, read-out: IC50.
Setting [20] is: MDA-MB-231 human breast cancer cells, MTT, 48 h, read-out: IC50.
[21] abbreviates: HepG2 human liver cancer cells, MTT, 48 h, read-out: IC50.
Setting [22] is: MCF10-A human normal breast epithelial cells, MTT, read-out: IC50.
Where [23] appears, read: Coca-2 human colon cancer cells, MTT, read-out: IC50.
The mark [24] stands for this setting: MDA-MB-453 human breast cancer cells, MTT, 48 h, read-out: IC50.
The mark [25] stands for this setting: Huh-7 human liver cancer cells, MTT, 48 h, read-out: IC50.
The mark [26] stands for this setting: Hela human cervical cancer cells, MTT, read-out: IC50.
The mark [27] stands for this setting: NCI-H460 human lung cancer cells, MTT, 48 h, read-out: IC50.
The mark [28] stands for this setting: A549 human lung cancer cells, MTT, 48 h, read-out: IC50.

As usually defined, the IC50 is the concentration at which inhibition is half-maximal. For `CC[C@@]1(O)C(=O)OCc2c1cc1n(c2=O)Cc2cc3cc(O)ccc3nc2-1` [10-HCPT, 10-hydroxycamptothecin, reference compound], the IC50 amounted to 10.4 ± 0.7 µM in data set [1] (Homo sapiens, HCT-116, 48 h); 13.2 ± 0.31 µM in [2] (Homo sapiens, MCF7, 48 h); 4.61 ± 0.19 µM in [3] (Homo sapiens, HT-29, 48 h); 3.39 ± 0.16 µM in data set [4] (Homo sapiens, NCI-H1299, 48 h); 7.05 ± 0.52 µM in [5] (Homo sapiens, BEAS-2B); 15.5 ± 1.07 µM in data set [6] (Homo sapiens, MDA-MB-231, 48 h). Also, the IC50 in [7] (Homo sapiens, HepG2, 48 h) amounted to 2.45 ± 0.27 µM; in data set [8] (Homo sapiens) it was 20.3 ± 0.59 µM; in data set [9] (Homo sapiens), 13.4 ± 0.34 µM; in data set [10] (Homo sapiens, MDA-MB-453, 48 h) it was 5.73 ± 0.62 µM; in data set [11] (Homo sapiens, Huh-7, 48 h), 7.69 ± 0.84 µM; in [12] (Homo sapiens, HeLa), 6.54 ± 0.07 µM. In addition, the IC50 amounted to 1.96 ± 0.01 µM in data set [13] (Homo sapiens, NCI-H460, 48 h) and 4.14 ± 0.03 µM in data set [14] (Homo sapiens, A549, 48 h).
The term melting point denotes the temperature of the solid-liquid transition. `CC[C@]1(O)C(=O)OCc2c1cc1n(c2=O)Cc2cc3cc(OC(=O)CCC(=O)N4CCN(c5ccc(Nc6ncc7c(C)c(C(C)=O)c(=O)n(C8CCCC8)c7n6)nc5)CC4)ccc3nc2-1` [HP-2, (R)-4-ethyl-4-hydroxy-3,14-dioxo-3,4,12,14-tetrahydro-1H-pyrano[3’,4’:6,7] indolizino[1,2-b]quinolin-9-yl4-(4-(6-((6-acetyl-8-cyclopentyl-5-methyl-7-oxo-7,8-dihydropyrido[2,3-d]pyrimidin-2-yl)amino)pyridin-3-yl)piperazin-1-yl)-4-oxobutanoate] yielded a melting point of 48.9 to 50.5 °C. Besides, the IC50 in [1] (setting [15]) amounted to 19.6 ± 1.21 µM. Further, the IC50 in data set [2] (setting [16]) was found to be 16.7 ± 0.59 µM. For the same compound, the IC50 in [3] (setting [17]) was 11.6 ± 0.57 µM. Also, in data set [4] (setting [18]), the IC50 amounted to 3.35 ± 0.01 µM. The concentration for half-maximal inhibition (IC50) in [5] (setting [19]) was found to be 34.8 ± 0.44 µM. In addition, the IC50 in data set [6] (setting [20]) was 16.5 ± 0.82 µM. Besides, the IC50 in [7] (setting [21]) worked out at 8.11 ± 1.34 µM. Also, the IC50 in data set [8] (setting [22]) came to 31.38 ± 0.23 µM. In addition, the IC50 in data set [9] (setting [23]) was found to be 18.8 ± 0.46 µM. Besides, the IC50 in [10] (setting [24]) turned out to be 6.38 ± 0.97 µM. Also, the IC50 in data set [11] (setting [25]) came to 16.5 ± 1.76 µM. Also, the half-inhibitory concentration (IC50) in data set [12] (setting [26]) was 7.82 ± 2.34 µM. Moreover, the IC50 in data set [13] (setting [27]) was found to be 1.32 ± 0.01 µM. In data set [14] (setting [28]), the IC50 turned out to be 5.24 ± 0.37 µM.
In turn, `CC[C@]1(O)C(=O)OCc2c1cc1n(c2=O)Cc2cc3cc(OC(=O)/C=C/C(=O)N4CCN(c5ccc(Nc6ncc7c(C)c(C(C)=O)c(=O)n(C8CCCC8)c7n6)nc5)CC4)ccc3nc2-1` [HP-3, (R)-4-ethyl-4-hydroxy-3,14-dioxo-3,4,12,14-tetrahydro-1H-pyrano[3’,4’:6,7] indolizino[1,2-b]quinolin-9-yl(E)-4-(4-(6-((6-acetyl-8-cyclopentyl-5-methyl-7-oxo-7,8-dihydropyrido[2,3-d]pyrimidin-2-yl)amino)pyridin-3-yl)piperazin-1-yl)-4-oxobut-2-enoate] displayed a melting point of 45.7 to 47.3 °C. The IC50 in [1] (setting [15]) came out at 23.2 ± 0.49 µM. For the same compound, the IC50 in data set [2] (setting [16]) was 21.4 ± 1.27 µM. Besides, the IC50 in data set [3] (setting [17]) is 15.4 ± 0.42 µM. Besides, in [4] (setting [18]), the IC50 was 4.35 ± 0.13 µM. Further, the IC50 in [5] (setting [19]) amounted to 39.98 ± 0.16 µM. In data set [6] (setting [20]), the IC50 was 27.3 ± 1.43 µM. In addition, in [7] (setting [21]), the IC50 is 6.84 ± 0.91 µM. Further, in data set [8] (setting [22]), the IC50 stood at 37.3 ± 1.66 µM. Moreover, the IC50 in [9] (setting [23]) came out at 17.1 ± 0.28 µM. For the same compound, the IC50 in [10] (setting [24]) stood at 8.31 ± 0.52 µM. The IC50 in data set [11] (setting [25]) stood at 33.7 ± 1.03 µM. Also, the half-inhibitory concentration (IC50) in data set [12] (setting [26]) stood at 14.9 ± 0.73 µM. Besides, in data set [13] (setting [27]), the IC50 was 2.08 ± 0.25 µM. In data set [14] (setting [28]), the IC50 turned out to be 5.52 ± 0.11 µM.
As for `CC(=O)c1c(C)c2cnc(Nc3ccc(N4CCNCC4)cn3)nc2n(C2CCCC2)c1=O` [Palbociclib], the IC50 turned out to be 31.6 ± 1.21 µM in [1] (setting [15]); 8.73 ± 0.33 µM in [2] (setting [16]); 16.8 ± 0.39 µM in data set [3] (setting [17]); 5.09 ± 0.24 µM in data set [4] (setting [18]); 38.8 ± 0.59 µM in [5] (setting [19]); 11.7 ± 1.75 µM in data set [6] (setting [20]). Also, the IC50 came out at 7.55 ± 1.49 µM in data set [7] (setting [21]); 39.7 ± 0.57 µM in data set [8] (setting [22]); 35.9 ± 0.41 µM in [9] (setting [23]); 5.15 ± 1.04 µM in data set [10] (setting [24]); 32.1 ± 1.93 µM in [11] (setting [25]); 21.35 ± 0.13 µM in data set [12] (setting [26]). The IC50 in data set [13] (setting [27]) amounted to 2.95 ± 0.11 µM; in [14] (setting [28]), 6.16 ± 0.19 µM.
